Measurements as given in PMC6680845, “Screening and Evaluation of Xanthine Oxidase Inhibitors from Gnetum parvifolium in China” (Molecules, 2019).

Tests used:
[1] = DPPH free radical scavenging test; conditions: DPPH 0.1 mM in methanol, 30 min in dark, 517 nm
Description: The DPPH and ABTS· radical scavenging tests were measured according to the reported method with some modifications. For DPPH test, 0.5 mL of sample with different concentrations were mixed thoroughly with 2 mL of DPPH solution (0.1 mM in methanol). The mixture was then kept in dark for 30 min. Finally, the absorbance of solution was measured by an UV-Vis Spectrophotometer (UV2700, Shimadzu, Kyoto, Japan) at 517 nm.
(§1) For ABTS test, ABTS solution (2 mL of ABTS stock solution (0.01 M) added to 58 mL phosphate buffers, pH 7.0) was incubated for 12 h and diluted with methanol for use. Then, 0.5 mL of samples with different concentrations were mixed thoroughly with 2 mL of ABTS solution. The mixture was kept in dark for 30 min, and the absorbance at 734 nm was measured by an UV-Vis Spectrophotometer. The same amount of water was used as control instead of sample. All experiments were performed in triplicate. The scavenging activity of DPPH and ABTS· radicals was calculated by the following formula: Radical scavenging rate% = 1 − As/A0 × 100 (2) where A0 was the absorbance of control and As was the absorbance of sample.

[2] = ABTS radical scavenging test; conditions: 30 min in dark, 734 nm
Description: as §1

[3] = target: xanthine oxidase (XO) (Bos taurus, UniProt P80457); assay: XO inhibition type and kinetics (Lineweaver-Burk and secondary plots); assay type: biochemical; conditions: for mode of XO inhibition: Lineweaver-Burk plots
Description: In order to further exploring the inhibitory activities of four inhibitors, the inhibition type and inhibition kinetics constants were assayed.
For inhibition test, 20 μL of XO solution (1 mg/mL in buffers) and 1 mL of sample with different concentrations were mixed in a quartz cuvette. Then, 1 mL of […] (1 mg/mL) was added to start reaction and the increase of absorbance at 295 nm in 100 s was recorded by an UV-Vis Spectrophotometer (UV2700, Shimadzu, Kyoto, Japan). […] All experiments were performed in triplicate. The inhibition of XO was calculated by the following formula. Inhibition% = (1 − ΔAs/ΔA0) × 100 (1) where ΔAs and ΔA0 are the changes of absorbance for sample and blank, respectively.

xanthine oxidase (XO), sequence (P80457 2-1332): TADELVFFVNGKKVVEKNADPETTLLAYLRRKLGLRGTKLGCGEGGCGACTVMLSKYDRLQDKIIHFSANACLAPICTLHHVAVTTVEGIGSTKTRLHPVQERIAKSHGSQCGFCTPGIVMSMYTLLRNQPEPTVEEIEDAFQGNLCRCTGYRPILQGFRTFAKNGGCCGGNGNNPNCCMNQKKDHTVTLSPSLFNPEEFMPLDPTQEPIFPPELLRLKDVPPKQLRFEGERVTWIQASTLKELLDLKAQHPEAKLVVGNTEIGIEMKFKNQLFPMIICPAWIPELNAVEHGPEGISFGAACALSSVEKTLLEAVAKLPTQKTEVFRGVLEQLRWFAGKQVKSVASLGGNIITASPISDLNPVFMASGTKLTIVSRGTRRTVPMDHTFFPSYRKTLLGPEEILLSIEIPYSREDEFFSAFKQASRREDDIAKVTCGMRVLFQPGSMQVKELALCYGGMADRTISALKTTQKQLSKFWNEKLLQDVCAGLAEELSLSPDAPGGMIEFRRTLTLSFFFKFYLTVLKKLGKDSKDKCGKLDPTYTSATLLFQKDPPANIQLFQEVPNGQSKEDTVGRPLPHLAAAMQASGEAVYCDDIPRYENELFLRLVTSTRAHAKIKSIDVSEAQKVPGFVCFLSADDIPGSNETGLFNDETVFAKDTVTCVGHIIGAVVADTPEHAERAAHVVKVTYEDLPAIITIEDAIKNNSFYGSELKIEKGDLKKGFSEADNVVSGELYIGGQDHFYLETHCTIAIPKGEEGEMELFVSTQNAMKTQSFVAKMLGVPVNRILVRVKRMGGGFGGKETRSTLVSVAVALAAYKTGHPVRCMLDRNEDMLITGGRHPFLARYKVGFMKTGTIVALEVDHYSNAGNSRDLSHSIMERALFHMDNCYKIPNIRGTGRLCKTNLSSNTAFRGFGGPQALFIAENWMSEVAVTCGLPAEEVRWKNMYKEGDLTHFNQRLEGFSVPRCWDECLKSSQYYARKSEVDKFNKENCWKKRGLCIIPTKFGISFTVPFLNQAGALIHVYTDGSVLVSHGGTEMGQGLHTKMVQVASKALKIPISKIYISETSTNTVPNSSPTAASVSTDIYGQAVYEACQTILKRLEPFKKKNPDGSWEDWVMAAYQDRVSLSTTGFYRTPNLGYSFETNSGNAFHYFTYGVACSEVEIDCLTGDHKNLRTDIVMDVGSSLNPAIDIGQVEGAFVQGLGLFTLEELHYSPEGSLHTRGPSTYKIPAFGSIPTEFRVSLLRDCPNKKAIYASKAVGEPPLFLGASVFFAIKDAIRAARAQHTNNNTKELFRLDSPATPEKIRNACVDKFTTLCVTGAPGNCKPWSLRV

Compound | EC50 [1] | EC50 [2] | mode of XO inhibition [3] | Vmax ([3]; inhibitor [C] 2.6 μM) | Vmax ([3]; inhibitor [C] 3.9 μM) | Vmax ([3]; inhibitor [C] 5.3 μM) | Vmax ([3]; inhibitor [C] 3.3 μM) | Vmax ([3]; inhibitor [C] 4.9 μM) | Vmax ([3]; inhibitor [C] 6.6 μM)
COc1cc(/C=C/c2cc(O)cc(O)c2)ccc1O [Isorhapontigenin] | 1450 µM | 300 µM | uncompetitive type | 0.168 mmol/min | 0.134 mmol/min | 0.061 mmol/min |  |  | 
Oc1cc(O)cc(/C=C/c2ccc(O)c(O)c2)c1 [Piceatannol] | 40 µM |  | competitive type |  |  |  | 0.160 mmol/min | 0.164 mmol/min | 0.157 mmol/min
Oc1ccc(/C=C/c2cc(O)cc(O)c2)cc1 [Resveratrol] |  |  | uncompetitive type |  |  |  | 0.173 mmol/min | 0.106 mmol/min | 0.088 mmol/min
